Measured values from ChEMBL document CHEMBL3396990, “Development of 1,3-diphenyladamantane derivatives as nonsteroidal progesterone receptor antagonists” (Bioorg Med Chem, 2015).
Calls of active or inactive are those of the source. The rule behind the calls is not given here.

Columns and labels:
Progesterone receptor [1] = biological target: T1, Progesterone receptor (Homo sapiens, UniProt P06401); test: Antagonist activity at PR in human T47D cells assessed as inhibition of progesterone-inducted alkaline phosphatase expression after 24 hrs by plate reader analysis; format: cell-based
T1 sequence (P06401 whole entry): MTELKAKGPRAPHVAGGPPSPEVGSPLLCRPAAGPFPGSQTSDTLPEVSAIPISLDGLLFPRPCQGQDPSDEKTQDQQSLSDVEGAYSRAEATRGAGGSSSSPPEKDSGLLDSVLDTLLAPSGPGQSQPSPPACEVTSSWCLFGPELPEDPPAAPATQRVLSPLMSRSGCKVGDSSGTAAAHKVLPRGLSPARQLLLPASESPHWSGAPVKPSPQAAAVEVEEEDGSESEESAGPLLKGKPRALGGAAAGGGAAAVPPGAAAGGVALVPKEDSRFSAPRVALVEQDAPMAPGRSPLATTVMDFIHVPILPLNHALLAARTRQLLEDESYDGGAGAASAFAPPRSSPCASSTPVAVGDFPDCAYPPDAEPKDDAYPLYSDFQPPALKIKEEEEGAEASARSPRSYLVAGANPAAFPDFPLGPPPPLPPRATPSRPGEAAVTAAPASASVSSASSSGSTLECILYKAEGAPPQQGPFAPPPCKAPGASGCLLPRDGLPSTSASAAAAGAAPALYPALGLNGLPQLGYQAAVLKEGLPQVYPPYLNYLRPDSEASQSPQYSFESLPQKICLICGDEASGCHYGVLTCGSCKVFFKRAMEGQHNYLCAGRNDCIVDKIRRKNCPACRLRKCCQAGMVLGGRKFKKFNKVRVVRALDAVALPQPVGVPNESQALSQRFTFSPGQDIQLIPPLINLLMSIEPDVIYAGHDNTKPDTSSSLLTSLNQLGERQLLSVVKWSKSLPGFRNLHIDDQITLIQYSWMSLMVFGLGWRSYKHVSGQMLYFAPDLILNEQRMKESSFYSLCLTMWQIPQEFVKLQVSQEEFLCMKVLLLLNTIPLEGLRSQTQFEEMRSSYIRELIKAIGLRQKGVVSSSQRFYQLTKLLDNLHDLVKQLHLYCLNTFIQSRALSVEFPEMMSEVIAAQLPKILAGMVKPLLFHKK

[2] = biological target: T2, Progesterone receptor (Homo sapiens) (UniProt P06401); test: Agonist activity at PR in human T47D cells assessed as induction of alkaline phosphatase expression after 24 hrs by plate reader analysis; format: cell-based
T2 sequence (whole entry): T1 sequence (P06401 whole entry)

Progesterone receptor [3] = biological target: T1, Progesterone receptor; test: Displacement of [1,2,6,7-3H]progesterone from human recombinant PR LBD after 24 hrs by liquid scintillation counting analysis

Row | IC50 (Progesterone receptor [1]) | Activity [2] | IC50 (Progesterone receptor [3]) | SMILES
1 | 178 nM | inactive | – | N#Cc1ccc(C23CC4CC(CC(c5ccc(N)cc5)(C4)C2)C3)cc1
2 | 404 nM | inactive | – | N#Cc1ccc(C23CC4CC(C2)CC(c2ccc(NC(=O)c5ccccc5)cc2)(C4)C3)cc1
3 | 53 nM | inactive | – | N#Cc1ccc(C23CC4CC(C2)CC(c2ccc([N+](=O)[O-])cc2)(C4)C3)cc1
4 | 36.2 nM | inactive | – | COC(=O)N(C)c1ccc(C23CC4CC(CC(c5ccc(C#N)cc5)(C4)C2)C3)cc1
5 | 39.5 nM | inactive | – | CCN(C(C)=O)c1ccc(C23CC4CC(CC(c5ccc(C#N)cc5)(C4)C2)C3)cc1
6 | 58.4 nM | inactive | – | CC(=O)Nc1ccc(C23CC4CC(CC(c5ccc(C#N)cc5)(C4)C2)C3)cc1
7 | 311 nM | inactive | 228 nM | CN(C(=O)c1ccccc1)c1ccc(C23CC4CC(CC(c5ccc(C#N)cc5)(C4)C2)C3)cc1
8 | 119 nM | inactive | – | CS(=O)(=O)Nc1ccc(C23CC4CC(CC(c5ccc(C#N)cc5)(C4)C2)C3)cc1
9 | 74 nM | inactive | – | CN(c1ccc(C23CC4CC(CC(c5ccc(C#N)cc5)(C4)C2)C3)cc1)S(C)(=O)=O
10 | 25 nM | inactive | > 10000 nM | COC(=O)Nc1ccc(C23CC4CC(CC(c5ccc(C#N)cc5)(C4)C2)C3)cc1
11 | 25.8 nM | inactive | 53 nM | CC(=O)N(C)c1ccc(C23CC4CC(CC(c5ccc(C#N)cc5)(C4)C2)C3)cc1
12 | 125 nM | inactive | – | CCCCCC(=O)N(C)c1ccc(C23CC4CC(CC(c5ccc(C#N)cc5)(C4)C2)C3)cc1
13 | > 1000 nM | inactive | – | N#Cc1ccc(C23CC4CC(C2)CC(c2ccc(N(Cc5ccccc5)Cc5ccccc5)cc2)(C4)C3)cc1
14 | 174 nM | inactive | – | CCCCCC(=O)Nc1ccc(C23CC4CC(CC(c5ccc(C#N)cc5)(C4)C2)C3)cc1
